{"source": "patent US20040200144A1", "about": "“Plant growth regulator and a method of producing the regulator” (Dainichiseika Color & Chemicals Mfg. Co., Ltd., priority 2003, published 2004)", "type_in_all_cases": "in vivo", "key": {"[1]": {"tested_on": "turnip young plants", "assay": "Dwarfing test of turnip young plant", "details": "for Plant Height / Dwarfing Rate: 5 ml per cell on 4th day, measured 20th day; for Dwarfing Rate: vs comparative group", "procedure": "(§1) 50 g of sodium tripolyphosphate was dissolved in 400 ml of distilled water at 80° C., 17.5 g of cinnamic acid was added to the sodium tripolyphosphate solution and dissolved by stirring, the resultant solution was diluted with distilled water until the total volume of solution was 500 ml, and thus 3.5% cinnamic acid aqueous solution (pH 6.5) was prepared. The aqueous solution was further diluted with distilled water 70 times or 17.5 times, and 0.05% cinnamic acid aqueous solution and 0.2% cinnamic acid aqueous solution were prepared, respectively.\n(§2) Nursery soil for house use was filled into paper joint pots (each with 24 cells: 34×43×50 mm/cell), water was sufficiently given to the soil, and seeds of carrots were sowed. After seeding, the pot was placed in the same greenhouse as described above to sprout. Subsequently, on the 5th day, the cinnamic aqueous acid solutions were added to the nursery soil in the joint pots. One of the joint pots (24 cells) was prepared as a 0.05% cinnamic acid aqueous solution addition group, and 5 ml of the 0.05% cinnamic acid aqueous solution was added to the nursery soil of each cell. Another one of the join pots was prepared as a 0.2% cinnamic acid aqueous solution addition group, and 5 ml of the 0.2% cinnamic acid aqueous solution was added to the nursery soil of each cell. The other one of the joint pots was prepared as a comparative group in which 5 ml of water is added to each cell, instead of the cinnamic acid aqueous solution. Subsequently, the cultivation of carrot young plants in each group was continued under general conditions. On the 27th day, the heights of young plants in each group were measured, the dwarfing rate (%) was calculated, and the dwarfing effect of cinnamic acid aqueous solution on carrot young plants was examined. […].\nIn the same way as in Example 12 except that seeds of color turnip were sowed, the dwarfing effect of cinnamic acid aqueous solution on turnip young plants was examined. […]"}, "[2]": {"tested_on": "broccoli young plants", "assay": "Dwarfing test of broccoli young plant", "details": "for Plant Height / Dwarfing Rate: 5 ml per cell on 4th day, measured 20th day; for Dwarfing Rate: vs comparative group", "procedure": "as §1, §2\nIn the same way as in Example 12 except that seeds of broccoli were sowed, the dwarfing effect of cinnamic acid aqueous solution on broccoli young plants was examined. […]"}, "[3]": {"tested_on": "newmelon young plants", "assay": "Dwarfing test of newmelon young plant", "details": "for Plant Height / Dwarfing Rate: 5 ml per cell on 7th day, measured 27th day; for Dwarfing Rate: vs comparative group", "procedure": "as §1, §2\n(§3) In the same way as in Example 12 except that seeds of tomato were sowed, and that the cinnamic acid solutions were added to the nursery soil of the joint pot on the 7th day, the dwarfing effect of cinnamic acid aqueous solution on tomato young plants was examined. […].\n(§4) In the same way as in Example 17 except that seeds of watermelon were sowed, and that plant heights were measured on the 27th day, the dwarfing effect of cinnamic acid aqueous solution on watermelon young plants was examined. […].\nIn the same way as in Example 21 except that seeds of newmelon were sowed, the dwarfing effect of cinnamic acid aqueous solution on newmelon young plants was examined. […]"}, "[4]": {"tested_on": "melon young plants", "assay": "Dwarfing test of melon young plant", "details": "for Plant Height / Dwarfing Rate: 5 ml per cell on 7th day, measured 25th day; for Dwarfing Rate: vs comparative group", "procedure": "After seeding, the pot was placed in the same greenhouse as described above to sprout. Subsequently, on the 5th day, the cinnamic aqueous acid solutions were added to the nursery soil in the joint pots. One of the joint pots (24 cells) was prepared as a 0.05% cinnamic acid aqueous solution addition group, and 5 ml of the 0.05% cinnamic acid aqueous solution was added to the nursery soil of each cell. Another one of the join pots was prepared as a 0.2% cinnamic acid aqueous solution addition group, and 5 ml of the 0.2% cinnamic acid aqueous solution was added to the nursery soil of each cell. […] Subsequently, the cultivation of carrot young plants in each group was continued under general conditions. On the 27th day, the heights of young plants in each group were measured, the dwarfing rate (%) was calculated, and the dwarfing effect of cinnamic acid aqueous solution on carrot young plants was examined. From the results in Table 5, it became evident that the 0.05% and 0.2% cinnamic acid aqueous solutions are effective in dwarfing carrot young plants. In the same way as in Example 5 except that seeds of cauliflower were sowed, the cinnamic acid solutions were added to the nursery soil in the joint pot on the 4th day, and that heights of young plants in each group were measured on the 20th day, the dwarfing effect of cinnamic acid aqueous solution on cauliflower young plants was examined. From the results in Table 12, it became evident that the cinnamic acid aqueous solutions are effective in dwarfing cauliflower young plants. In the same way as in Example 12 except that seeds of tomato were sowed, and that the cinnamic acid solutions were added to the nursery soil of the joint pot on the 7th day, the dwarfing effect of cinnamic acid aqueous solution on tomato young plants was examined. From the results in Table 17, it became evident that the cinnamic acid aqueous solutions are effective in dwarfing tomato young plants. In the same way as in Example 17 except that seeds of melon were sowed, and that plant heights were measured on the 25th day, the dwarfing effect of cinnamic acid aqueous solution on melon young plants was examined. From the results in Table 25, it became evident that the cinnamic acid aqueous solutions are effective in dwarfing melon young plants."}, "[5]": {"tested_on": "Cucumis melo var. makuwa young plants", "assay": "Dwarfing test of Cucumis melo var. makuwa young plant", "details": "for Plant Height / Dwarfing Rate: 5 ml per cell on 7th day, measured 27th day; for Dwarfing Rate: vs comparative group", "procedure": "as §1, §2, §3, §4\nIn the same way as in Example 21 except that seeds of Cucumis melo var. makuwa were sowed, the dwarfing effect of cinnamic acid aqueous solution on Cucumis melo var. makuwa young plants was examined. […]"}}}
{"smiles": "O=C(O)C=Cc1ccccc1", "note": "[cinnamic acid]", "values": [{"measurement": "Plant Height", "setting": "[1]; 0.05% aqueous solution", "value": 7.0, "unit": "cm"}, {"measurement": "Dwarfing Rate", "setting": "[1]; 0.05% aqueous solution", "value": 23.1, "unit": "%"}, {"measurement": "Plant Height", "setting": "[1]; 0.2% aqueous solution", "value": 6.0, "unit": "cm"}, {"measurement": "Dwarfing Rate", "setting": "[1]; 0.2% aqueous solution", "value": 34.1, "unit": "%"}, {"measurement": "dwarfing effect", "setting": "[1]; turnip young plants, 0.05% and 0.2% aqueous solutions", "value": "effective"}, {"measurement": "Plant Height", "setting": "[2]; 0.05% aqueous solution", "value": 8.8, "unit": "cm"}, {"measurement": "Dwarfing Rate", "setting": "[2]; 0.05% aqueous solution", "value": 6.4, "unit": "%"}, {"measurement": "Plant Height", "setting": "[2]; 0.2% aqueous solution", "value": 6.4, "unit": "cm"}, {"measurement": "Dwarfing Rate", "setting": "[2]; 0.2% aqueous solution", "value": 31.9, "unit": "%"}, {"measurement": "dwarfing effect", "setting": "[2]; broccoli young plants, 0.05% and 0.2% aqueous solutions", "value": "effective"}, {"measurement": "Plant Height", "setting": "[3]; 0.05% aqueous solution", "value": 7.3, "unit": "cm"}, {"measurement": "Dwarfing Rate", "setting": "[3]; 0.05% aqueous solution", "value": 6.4, "unit": "%"}, {"measurement": "Plant Height", "setting": "[3]; 0.2% aqueous solution", "value": 4.9, "unit": "cm"}, {"measurement": "Dwarfing Rate", "setting": "[3]; 0.2% aqueous solution", "value": 37.2, "unit": "%"}, {"measurement": "dwarfing effect", "setting": "[3]; newmelon young plants, 0.05% and 0.2% aqueous solutions", "value": "effective"}, {"measurement": "Plant Height", "setting": "[4]; 0.05% aqueous solution", "value": 6.3, "unit": "cm"}, {"measurement": "Dwarfing Rate", "setting": "[4]; 0.05% aqueous solution", "value": 4.5, "unit": "%"}, {"measurement": "Plant Height", "setting": "[4]; 0.2% aqueous solution", "value": 4.1, "unit": "cm"}, {"measurement": "Dwarfing Rate", "setting": "[4]; 0.2% aqueous solution", "value": 37.9, "unit": "%"}, {"measurement": "dwarfing effect", "setting": "[4]; melon young plants, 0.05% and 0.2% aqueous solutions", "value": "effective"}, {"measurement": "Plant Height", "setting": "[5]; 0.05% aqueous solution", "value": 6.1, "unit": "cm"}, {"measurement": "Dwarfing Rate", "setting": "[5]; 0.05% aqueous solution", "value": 6.2, "unit": "%"}, {"measurement": "Plant Height", "setting": "[5]; 0.2% aqueous solution", "value": 4.7, "unit": "cm"}, {"measurement": "Dwarfing Rate", "setting": "[5]; 0.2% aqueous solution", "value": 27.7, "unit": "%"}, {"measurement": "dwarfing effect", "setting": "[5]; Cucumis melo var. makuwa young plants, 0.05% and 0.2% aqueous solutions", "value": "effective"}]}
